Earlier results, collected in patent US20100121052A1, “Novel compounds for treating proliferative diseases” (priority 2008, published 2010).

System: prostate cancer cell lines
Conditions: background statement

CC(=O)O[C@@H]1[C@@H](OC(C)=O)[C@@H](O)[C@H](Oc2c(-c3ccc(O)cc3)oc3cc(O)cc(O)c3c2=O)O[C@H]1C [SL0101]
inhibition of proliferation of multiple prostate cancer cell lines: inhibit the proliferation
